The record followed here is US8785488B2 (Exelixis Patent Company LLC, priority 2009, dated 2014).

This test addresses T1, human TGR5 (h-TGR5) (Homo sapiens, UniProt Q8TDU6).
T1 construct: expressed in transfected cells
T1 sequence (Q8TDU6 1-330): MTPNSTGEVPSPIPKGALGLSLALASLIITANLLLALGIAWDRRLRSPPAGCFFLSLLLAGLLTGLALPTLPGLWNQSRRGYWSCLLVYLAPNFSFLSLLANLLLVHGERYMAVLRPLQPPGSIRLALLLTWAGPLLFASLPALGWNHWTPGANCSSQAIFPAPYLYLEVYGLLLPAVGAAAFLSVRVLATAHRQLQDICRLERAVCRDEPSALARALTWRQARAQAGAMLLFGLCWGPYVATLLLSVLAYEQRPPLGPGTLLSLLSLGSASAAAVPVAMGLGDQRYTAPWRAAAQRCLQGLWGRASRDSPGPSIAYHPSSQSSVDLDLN
The test can be described thus: TGR5/CRE-Luciferiase Assay (HEK 293 hTGR5/CRE-Luc cells). Format: cell-based. A digest of the protocol: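 HEK293 cells stably carrying hTGR5 and a CRE-luciferase reporter were exposed to serially diluted compounds (diluted in DMEM with 5% DMSO) for 6 h. Cells were then lysed in luciferase buffer, luminescence was read, and EC50 values were derived from dose-response curves.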

Setting [1] is: h-TGR5 CRE-Luc EC50, Table 1, read-out: CRE-Luc (EC50).

pEC50: −log10 of the molar value. Read-outs that look alike come from different tables or passages of the source.

Usually pEC50 stands for the EC50 on a negative log10 scale, so that one unit is a factor of ten.

In the case of `CC(C)(c1ccc(Cl)c(Cl)c1)c1cnc(SCc2c(F)cccc2Cl)n1-c1ccc(F)cc1C(F)(F)F` [2-{[(2-chloro-6-fluorophenyl)methyl]thio}-5-[1-(3,4-dichlorophenyl)-1-methylethyl]-1-[4-fluoro-2-(trifluoromethyl)phenyl]-1H-imidazole], the negative-log EC50 (pEC50) under setting [1] is 5.00 to 6.00. Still for that read-out and setting: for `CC(C)(c1ccc(Cl)c(Cl)c1)c1cnc(SCc2c(F)cc(F)cc2F)n1-c1ccc(F)cc1` [5-[1-(3,4-dichlorophenyl)-1-methylethyl]-1-(4-fluorophenyl)-2-{[(2,4,6-trifluorophenyl)methyl]thio}-1H-imidazole] the value was over 7.00; for `CC(C)(c1ccc(S(C)(=O)=O)cc1)c1cnc(SCc2ccc(S(=O)(=O)NC(=O)NN3CCCC3)cc2Cl)n1-c1ccc(F)cc1` [3-chloro-4-({[1-(4-fluorophenyl)-5-{1-methyl-1-[4-(methylsulfonyl)phenyl]ethyl}-1H-imidazol-2-yl]thio}methyl)-N-[(pyrrolidin-1-ylamino)carbonyl]benzenesulfonamide], 5.00 to 6.00; for `CC(C)(c1ccc(Cl)c(Cl)c1)c1cnc(S(=O)(=O)Cc2c(F)cccc2Cl)n1-c1ccc(Cl)c(Cl)c1` [2-{[(2-chloro-6-fluorophenyl)methyl]sulfonyl}-1-(3,4-dichlorophenyl)-5-[1-(3,4-dichlorophenyl)-1-methylethyl]-1H-imidazole], 5.00 to 6.00. For `CC(C)(c1ccc(Cl)c(Cl)c1)c1cnc(SCc2ccc(F)cc2S(N)(=O)=O)n1-c1ccc(F)cc1` [2-[({5-[1-(3,4-dichlorophenyl)-1-methylethyl]-1-(4-fluorophenyl)-1H-imidazol-2-yl}thio)methyl]-5-fluorobenzenesulfonamide], the pEC50 under setting [1] is 6.00 to 7.00. The same measure, in the same setting: then `CC(C)(c1ccc(Cl)c(Cl)c1)c1cnc(S(=O)(=O)Cc2ccc(Cl)c(Cl)c2)n1-c1ccc(F)cc1` [5-[1-(3,4-dichlorophenyl)-1-methylethyl]-2-{[(3,4-dichlorophenyl)methyl]sulfonyl}-1-(4-fluorophenyl)-1H-imidazole], with 5.00 to 6.00; and `CN1CCN(c2ccc(CSc3ncc(C(C)(C)c4ccc(Cl)c(Cl)c4)n3-c3ccc(F)cc3)cc2F)CC1` [1-{4-[({5-[1-(3,4-dichlorophenyl)-1-methylethyl]-1-(4-fluorophenyl)-1H-imidazol-2-yl}thio)methyl]-2-fluorophenyl}-4-methylpiperazine], with 6.00 to 7.00; and `CN1CCN(c2ccc(CSc3ncc(C(C)(C)c4ccc(Cl)c(Cl)c4)n3-c3ccc(F)cc3)cc2Cl)CC1` [1-{2-chloro-4-[({5-[1-(3,4-dichlorophenyl)-1-methylethyl]-1-(4-fluorophenyl)-1H-imidazol-2-yl}thio)methyl]phenyl}-4-methylpiperazine], with 5.00 to 6.00. Still for that read-out and setting: then `CC(C)(c1ccc(Cl)c(Cl)c1)c1cnc(S(=O)(=O)Cc2c(F)cccc2Cl)n1-c1ccc(F)cc1` [2-{[(2-chloro-6-fluorophenyl)methyl]sulfonyl}-5-[1-(3,4-dichlorophenyl)-1-methylethyl]-1-(4-fluorophenyl)-1H-imidazole], with 6.00 to 7.00. In the case of `COc1ccc(C(C)(C)c2cnc(C(=O)N(C)c3c(F)cccc3Cl)n2-c2ccc(F)cc2)cc1OC` [5-{1-[3,4-bis(methyloxy)phenyl]-1-methylethyl}-N-(2-chloro-6-fluorophenyl)-1-(4-fluorophenyl)-N-methyl-1H-imidazole-2-carboxamide], the pEC50 under setting [1] was 5.00 to 6.00.

As for `CC(C)(c1ccc(Cl)c(Cl)c1)c1cnc(COc2ccnc3ccccc23)n1-c1ccc(F)cc1` [4-[({5-[1-(3,4-dichlorophenyl)-1-methylethyl]-1-(4-fluorophenyl)-1H-imidazol-2-yl}methyl)oxy]quinoline], the negative logarithm of the EC50 (pEC50) under setting [1] was 5.00 to 6.00. On the same count and under the same terms, then `CC(C)(c1ccc(Cl)c(Cl)c1)c1cnc(SCc2c(F)cc(C#N)cc2F)n1-c1ccc(F)cc1` [4-[({5-[1-(3,4-dichlorophenyl)-1-methylethyl]-1-(4-fluorophenyl)-1H-imidazol-2-yl}thio)methyl]-3,5-difluorobenzonitrile], with over 7.00; and `CC(C)(c1ccc(Cl)c(Cl)c1)c1cnc(-c2ccc(F)cc2)n1-c1ccc(F)cc1` [5-[1-(3,4-dichlorophenyl)-1-methylethyl]-1,2-bis(4-fluorophenyl)-1H-imidazole], with 6.00 to 7.00. The same measure, in the same setting: for `CC(C)(c1ccc(Cl)c(Cl)c1)c1cnc(SCc2ccc(C(N)=O)cc2Cl)n1-c1ccc(F)cc1` [3-chloro-4-[({5-[1-(3,4-dichlorophenyl)-1-methylethyl]-1-(4-fluorophenyl)-1H-imidazol-2-yl}thio)methyl]benzamide] the value was 6.00 to 7.00; for `CC(C)(c1ccc(Cl)c(Cl)c1)c1cnc(C(F)CC2CCN(S(C)(=O)=O)CC2)n1-c1ccc(F)cc1` (centres unmarked) [4-(2-{5-[1-(3,4-dichlorophenyl)-1-methylethyl]-1-(4-fluorophenyl)-1H-imidazol-2-yl}-2-fluoroethyl)-1-(methylsulfonyl)piperidine], 5.00 to 6.00; for `CC(C)(Oc1ccc(C(C)(C)c2cnc(SCc3ccc(F)cc3Cl)n2-c2ccc(F)cc2)cc1Cl)C(=O)O` [2-[(2-chloro-4-{1-[2-{[(2-chloro-4-fluorophenyl)methyl]thio}-1-(4-fluorophenyl)-1H-imidazol-5-yl]-1-methylethyl}phenyl)oxy]-2-methylpropanoic acid], 6.00 to 7.00. The same measure, in the same setting: then `CCN(CC)CCOc1ccc(CSc2ncc(C(C)(C)c3ccc(Cl)c(Cl)c3)n2-c2ccc(F)cc2)cc1S(N)(=O)=O` [5-[({5-[1-(3,4-dichlorophenyl)-1-methylethyl]-1-(4-fluorophenyl)-1H-imidazol-2-yl}thio)methyl]-2-{[2-(diethylamino)ethyl]oxy}benzenesulfonamide], with 6.00 to 7.00.

Take `CC(C)(c1ccc(Cl)c(Cl)c1)c1cnc(SCc2c(F)cccc2C(=O)O)n1-c1ccc(F)cc1` [2-[({5-[1-(3,4-dichlorophenyl)-1-methylethyl]-1-(4-fluorophenyl)-1H-imidazol-2-yl}thio)methyl]-3-fluorobenzoic acid]: the pEC50 under setting [1] was 6.00 to 7.00.

Take `COc1ccc(C(C)(C)c2cnc(SCc3ccc(F)cc3Cl)n2-c2ccc(F)cc2)cc1Cl` [2-{[(2-chloro-4-fluorophenyl)methyl]thio}-5-{1-[3-chloro-4-(methyloxy)phenyl]-1-methylethyl}-1-(4-fluorophenyl)-1H-imidazole]: the pEC50 under setting [1] is over 7.00.

`COc1ccc(C(C)(C)c2cnc(SCc3c(F)cccc3C(=O)O)n2-c2ccc(F)cc2)cc1OC` [2-({[5-{1-[3,4-bis(methyloxy)phenyl]-1-methylethyl}-1-(4-fluorophenyl)-1H-imidazol-2-yl]thio}methyl)-3-fluorobenzoic acid]: the pEC50 under setting [1] is 6.00 to 7.00. As for `CNS(=O)(=O)c1ccc(C(C)(C)c2cnc(SCc3ccc(F)cc3Cl)n2-c2ccc(F)cc2)cc1` [4-{1-[2-{[(2-chloro-4-fluorophenyl)methyl]thio}-1-(4-fluorophenyl)-1H-imidazol-5-yl]-1-methylethyl}-N-methylbenzenesulfonamide], the pEC50 under setting [1] is 6.00 to 7.00.

As for `CC(C)(c1ccc(Cl)c(Cl)c1)c1cnc(SCc2c(Cl)cccc2Cl)n1-c1ccc(F)cc1` [5-[1-(3,4-dichlorophenyl)-1-methylethyl]-2-{[(2,6-dichlorophenyl)methyl]thio}-1-(4-fluorophenyl)-1H-imidazole], the pEC50 under setting [1] is 6.00 to 7.00. Consider `CC(C)(c1ccc2nccnc2c1)c1nnc(SCc2ccc(Cl)c(-c3nnn[nH]3)c2)n1-c1ccc(F)cc1` [Example 46], for which the pEC50 (HEK 293 hTGR5/CRE-Luc cells, 6 hours incubation, luciferase activity, Table 2, read-out: h-TGR5CRE-Luc EC50 (CRE-Luc)) is 5.00 to 6.00. Turning to `CC(C)(C)OC(=O)N1CCC(CSc2ncc(C(C)(C)c3ccc(Cl)c(Cl)c3)n2-c2ccc(F)cc2)C1` (centres unmarked) [1,1-dimethylethyl 3-[({5-[1-(3,4-dichlorophenyl)-1-methylethyl]-1-(4-fluorophenyl)-1H-imidazol-2-yl}thio)methyl]pyrrolidine-1-carboxylate], the pEC50 under setting [1] was 6.00 to 7.00. Same read-out and setting: for `CC(C)(c1ccc(Cl)c(Cl)c1)c1cnc(SCc2cc(C(N)=O)ccc2Cl)n1-c1ccc(F)cc1` [4-chloro-3-[({5-[1-(3,4-dichlorophenyl)-1-methylethyl]-1-(4-fluorophenyl)-1H-imidazol-2-yl}thio)methyl]benzamide] the value was 6.00 to 7.00; for `CC(C)(c1ccc(Cl)c(Cl)c1)c1cnc(SCc2ccc(F)c(C(=O)NCCN3CCOCC3)c2)n1-c1ccc(F)cc1` [5-[({5-[1-(3,4-dichlorophenyl)-1-methylethyl]-1-(4-fluorophenyl)-1H-imidazol-2-yl}thio)methyl]-2-fluoro-N-(2-morpholin-4-ylethyl)benzamide], 6.00 to 7.00.

As to `CC(C)(c1ccc(F)c(F)c1)c1cnc(SCc2ccc(C(=O)O)cc2F)n1-c1ccc(F)cc1` [4-[({5-[1-(3,4-difluorophenyl)-1-methylethyl]-1-(4-fluorophenyl)-1H-imidazol-2-yl}thio)methyl]-3-fluorobenzoic acid], the pEC50 under setting [1] is 6.00 to 7.00. As to `CC(C)(c1ccc(Cl)c(Cl)c1)c1cnc(SCc2ccc(C(=N)N)cc2Cl)n1-c1ccc(F)cc1` [3-chloro-4-[({5-[1-(3,4-dichlorophenyl)-1-methylethyl]-1-(4-fluorophenyl)-1H-imidazol-2-yl}thio)methyl]benzenecarboximidamide], under setting [1], the pEC50 is 6.00 to 7.00. The same measure, in the same setting: for `CC(C)(c1ccc(OC(F)(F)F)c(Cl)c1)c1cnc(SCc2ccc(F)cc2Cl)n1-c1ccc(F)cc1` [2-{[(2-chloro-4-fluorophenyl)methyl]thio}-5-(1-{3-chloro-4-[(trifluoromethyl)oxy]phenyl}-1-methylethyl)-1-(4-fluorophenyl)-1H-imidazole] the value was 5.00 to 6.00.
